# Where two headings read alike, the source gives them in different places.
# Tests used:
# [1] = test system: biochemical bone activity markers; experiment: Combined Phase 3 studies, biochemical bone activity markers; type: in vivo, human
# Text: Serum bone-specific alkaline phosphate and serum osteocalcin are considered more sensitive bone markers to evaluate degree of bone remodeling than urinary bone marker. […] These subjects received treatment with the oral formulations of the present invention or a placebo. The bone markers examined in these subjects were serum osteocalcin, serum bone-specific alkaline phosphatase, urinary pyridinoline, and deoxypyridinoline. If more than 1 biochemical bone activity marker measurement existed for a subject on a particular day, the higher measurement was considered to be that subject's biochemical bone activity marker measurement for that day. […] The Final Visit measurement was defined as the last biochemical bone activity marker measurement following the first dose of study drug.
# The Week 11 Visit measurement was defined as the biochemical bone activity marker measurement on the day closest to the Week 11 scheduled visit, for which the possible measurements to choose from were those collected within 64 and 77 days following the first dose of study drug.
# Changes from baseline to Week 11 Visit and to Final Visit in biochemical bone activity markers were compared between oral paricalcitol and placebo using an ANOVA with treatment as the factor on the combined Phase 3 all treated subject population (Table F). Also, the changes from baseline to Week 11 Visit and to Final Visit were compared between oral paricalcitol and placebo using an ANCOVA with baseline as the second factor on the combined Phase 3 all treated subject population (Table G).
# In this example, paricalcitol capsules were evaluated in 3 double-blind, placebo-controlled multicenter studies in CKD stage 3-4 subjects with 2° HPT; 2 of these studies were conducted with TIW dosing and 1 was done with QD dosing. Subjects with eGFR (MDRD formula) 15-60 ml/min/1.73 m^2, iPTH ≧150 pg/mL, serum Ca 8.0-10.0 mg/dL and PO4≦5.2 mg/dL were randomized 1:1 and treated with paricalcitol capsule or placebo for 24 weeks. A total of 145 subjects used TIW regimen (paricalcitol: 72; placebo: 73) and 75 subjects (paricalcitol: 35; placebo: 40) used QD regimen. After the initial doses, doses were titrated based on serum Ca, P and iPTH results that were measured every 2 weeks; dose increases occurred once every 4 weeks and decreases every 2 weeks. Dosing administrations are shown below in Table 18.
# [2] = Phase 3 TIW study, safety (Example 7); type: in vivo, human
# Procedure: Safety: Safety was assessed through an evaluation of clinically meaningful hypercalcemia (2 consecutive calcium results >10.5 mg/dL). Additionally, safety was assessed by the incidence of adverse events, the change from baseline in chemistry, hematology and urinalysis laboratory variables, the change from baseline in subject vital signs, and progressive changes in renal function observed via changes in eGFR.
# All randomized subjects who received at least 1 dose of study drug were used in safety analyses. The primary safety analysis was a comparison between the paricalcitol and placebo treatment groups of the proportion of subjects achieving clinically meaningful hypercalcemia (2 consecutive calcium measurements >10.5 mg/dL). This comparison was performed using a Fisher's exact test. Secondary safety analyses were performed comparing changes/percent changes from baseline between the paricalcitol and placebo treatment groups using a one-way ANOVA with treatment group as the factor for the following variables: hematology, complete chemistry, and urinalysis variables; 24-hour urine collections, eGFR, urinary calcium/creatinine ratio, cardiovascular markers, and vital signs. Secondary safety analyses also consisted of an analysis of “treatment-emergent” adverse events (i.e., adverse events with an onset date on or after the date the first dose of study drug was taken). Adverse events were summarized by body system and COSTART term according to the COSTART V adverse event-coding dictionary. Comparisons of the percentage of subjects experiencing an adverse event between the Oral paricalcitol and placebo treatment groups were performed using a Fisher's exact test.
# [3] = Bioavailability of capsule vs intravenous formulation, end-stage CKD on continuous peritoneal dialysis (Example 9); type: in vivo; conditions: human, plasma, 0.24 μg/kg; for half-life: CPD, read-out: harmonic mean of the terminal elimination half-life (converted)
# Procedure: Methodology: This was a Phase I, open-label, randomized, single-dose, two-period, crossover, nonfasting study. Subjects were randomized into two sequence groups of
# Formulations A and B. The two nonfasting study administrations were: […]
# The strengths of the capsule formulations were 0.5, 1, 2 or 4 μg.
# The intravenous formulation contained 2-10 micrograms/milliliter of paricalcitol, 30% (v/v) propylene glycol, 20% (v/v) ethanol and 50% (v/v) water.
# Both formulations were administered immediately after CPD exchange in the morning, 30 minutes after breakfast was served. Phosphate binders, commonly used in the management of end-stage renal disease, were withheld 8 hours prior to and 2 hours after the drug administration. A washout interval of at least 7 days separated the doses of the two study periods.
# Plasma concentrations of paricalcitol were determined using a validated HPLC-tandem mass spectrometric assay method at Abbott Laboratories, Abbott Park, Ill. The lower limit of quantitation of paricalcitol was 0.02 ng/mL using 0.6 mL of plasma.
# Pharmacokinetic: The pharmacokinetic parameter values of paricalcitol were estimated using noncompartmental methods. These included: Cmax, t1/2, AUC0-t, AUC0-∞, CL, CL/F, Tmax, Vdβ and Vdβ/F, as described in the last example.
# Statistical Methods: An analysis of variance (ANOVA) was performed for β and the logarithms of Cmax, AUC0-t and AUC0-∞. […] The number and percentage of subjects reporting adverse events were tabulated by COSTART term and body system. Laboratory values outside the reference ranges were flagged and evaluated for clinical significance.
# [4] = Phase 3 once daily study, safety (Example 8)
# Procedure: Additionally, safety was assessed by the incidence of adverse events, the change from baseline in chemistry, hematology and urinalysis laboratory variables, the change from baseline in subject vital signs, and progressive changes in renal function observed via changes in eGFR.
# All randomized subjects who received at least 1 dose of study drug were used in safety analyses.
# Secondary safety analyses also consisted of an analysis of “treatment-emergent” adverse events (i.e., adverse events with an onset date on or after the date the first dose of study drug was taken). Adverse events were summarized by body system and COSTART term according to the COSTART V adverse event-coding dictionary. Comparisons of the percentage of subjects experiencing an adverse event between the Paricalcitol and placebo treatment groups were performed using a Fisher's exact test.
# [5] = Phase 3 studies combined, all treated subjects
# [6] = Phase 3 studies combined, all treated subjects, listed as Oral Paricalcitol
# [7] = Phase 3 studies combined, all treated subjects, listed as oral paricalcitol
# [8] = Phase 3 studies, TIW Treatment Regimen
smiles,measurement,setting,value
"C[C@H](/C=C/[C@H](C)C(C)(C)O)[C@H]1CC[C@H]2/C(=C/C=C3C[C@@H](O)C[C@H](O)C3)CCC[C@]12C [Paricalcitol, 19-nor-1α,3β,25-trihydroxy-9,10-secoergosta-5(Z); 7(E),22(E)-triene]","Serum Osteocalcin, Change from Baseline (SE) to Week 11",[1]; [5],−3.94 (2.431) ng/mL
same,"Urinary Deoxypyridinoline, Change from Baseline (SE) to Final",[1]; [5],−0.0058 (0.00514) nmol/mg Creat
same,"Urinary Pyridinoline, Change from Baseline (SE) to Week 11",[1]; [5],−5.21 (1.938) nmol/mmol Creat
same,"Serum Bone-Specific Alkaline Phosphatase, Change from Baseline (SE) to Final",[1]; [6],−7.890 (0.7596) mcg/L
same,"Serum Bone-Specific Alkaline Phosphatase, Change from Baseline (SE) to Week 11",[1]; [6],−5.024 (0.6279) mcg/L
same,"Serum Osteocalcin, Change from Baseline (SE) to Final",[1]; [6],−21.64 (2.706) ng/mL
same,"Urinary Deoxypyridinoline, Change from Baseline (SE) to Week 11",[1]; [6],−0.0155 (0.00433) nmol/mg Creat
same,"Urinary Pyridinoline, Change from Baseline (SE) to Final",[1]; [6],−3.61 (1.896) nmol/mmol Creat
same,"Serum Bone-Specific Alkaline Phosphatase, Change from Baseline (SE) to Final",[1]; [7],-7.89 µg/L
same,"Serum Bone-Specific Alkaline Phosphatase, Change from Baseline (SE) to Week 11",[1]; [7],-5.024 µg/L
same,"Serum Osteocalcin, Change from Baseline (SE) to Final",[1]; [7],-21.64 ng/mL
same,"Urinary Deoxypyridinoline, Change from Baseline (SE) to Week 11",[1]; [7],−0.0155 nmol/mg Creat
same,"Urinary Pyridinoline, Change from Baseline (SE) to Final",[1]; [7],−3.61 nmol/mmol Creat
same,"Serum Bone-Specific Alkaline Phosphatase, Change from Baseline (SE) to Final",[1]; [8],−8.043 (0.9033) mcg/L
same,"Serum Bone-Specific Alkaline Phosphatase, Change from Baseline (SE) to Week 11",[1]; [8],−4.869 (0.7835) mcg/L
same,"Serum Osteocalcin, Change from Baseline (SE) to Final",[1]; [8],−18.96 (2.944) ng/mL
same,"Serum Osteocalcin, Change from Baseline (SE) to Week 11",[1]; [8],−5.53 (2.720) ng/mL
same,"Urinary Deoxypyridinoline, Change from Baseline (SE) to Final",[1]; [8],−0.0130 (0.00357) nmol/mg Creat
same,"Urinary Deoxypyridinoline, Change from Baseline (SE) to Week 11",[1]; [8],−0.0129 (0.00426) nmol/mg Creat
same,"Urinary Pyridinoline, Change from Baseline (SE) to Final",[1]; [8],−5.47 (1.789) nmol/mmol Creat
same,"Urinary Pyridinoline, Change from Baseline (SE) to Week 11",[1]; [8],−5.19 (2.213) nmol/mmol Creat
same,"Bone Spec. Alk Phos, Mean Change from Baseline","[1]; QD Regimen, N = 33 (Table 20)",−7.6 (1.40) mcg/L
same,"Serum Osteocalcin, Mean Change from Baseline","[1]; QD Regimen, N = 33 (Table 20)",−27.1 (5.54) ng/mL
same,"Serum Osteocalcin, Mean Change from Baseline","[1]; TIW Regimen, N = 67 (Table 20)",−19.0 (2.94) ng/mL
same,"Bone Spec. Alk Phos, Mean Change from Baseline","[1]; TIW Regimen, N = 68 (Table 20)",−8.0 (0.90) mcg/L
same,safety and tolerability,[2]; CKD (Stages 3 and 4) subjects,safe and well tolerated
same,adverse events considered not related to study drug administration,"[2]; TIW, 24 weeks",81%
same,adverse events mild or moderate in severity,"[2]; TIW, 24 weeks",96%
same,subjects with treatment-emergent adverse events,"[2]; TIW, 24 weeks",76%
same,"mean calcium values, range over scheduled visits",[2]; Treatment Phase,9.36 to 9.62 mg/dL
same,subjects reporting serious adverse events,[2]; Treatment and Follow-Up Phases,6 subjects
same,adverse event incidence: diarrhea,[2]; in vivo,9%
same,adverse event incidence: dizziness,[2]; in vivo,12%
same,adverse event incidence: edema,[2]; in vivo,9%
same,adverse event incidence: hypotension,[2]; in vivo,12%
same,adverse event incidence: uremia,[2]; in vivo,12%
same,"serum calcium, mean change from baseline to Last On-Treatment Visit",[2]; in vivo,0.19 mg/dL
same,subjects terminated prematurely due to adverse events,[2]; in vivo,1 subjects
same,subjects who developed clinically meaningful hypercalcemia (at least 2 consecutive calcium values >10.5 mg/dL),[2]; in vivo,1/33
same,"eGFR, mean percent change from baseline to Final Visit",[2]; subjects who completed 24 weeks of treatment,−16.61%
same,half-life,[3]; following intravenous administration,~15 h
same,half-life,[3]; following oral administration,~18 h
same,bioavailability,"[3]; single oral dose of capsule formulation, end-stage renal disease on CPD, read-out: absolute bioavailability",86.1%
same,safety and tolerability,[4]; CKD (Stages 3 and 4) subjects,safe and well tolerated
same,"mean calcium values, range over scheduled visits",[4]; Treatment Phase,9.24 to 9.54 mg/dL
same,subjects reporting serious adverse events,[4]; Treatment and Follow-Up Phases,7 subjects
same,deaths,"[4]; hepatic encephalopathy, considered not related to study drug",1 subject
same,adverse event incidence: abdominal pain,[4]; in vivo,9%
same,adverse event incidence: accidental injury,[4]; in vivo,17%
same,adverse event incidence: allergic reaction,[4]; in vivo,9%
same,adverse event incidence: cough increased,[4]; in vivo,9%
same,adverse event incidence: diarrhea,[4]; in vivo,11%
same,adverse event incidence: edema,[4]; in vivo,11%
same,adverse event incidence: nausea,[4]; in vivo,9%
same,adverse event incidence: pharyngitis,[4]; in vivo,14%
same,adverse event incidence: rash,[4]; in vivo,11%
same,adverse event incidence: vomiting,[4]; in vivo,11%
same,"phosphorus, mean change from baseline to Final Visit",[4]; in vivo,-0.13 mg/dL
same,"serum calcium, mean change from baseline to Last On-Treatment Visit",[4]; in vivo,0.21 mg/dL
same,subjects terminated prematurely due to adverse events,[4]; in vivo,4 subjects
same,subjects who developed clinically meaningful hypercalcemia (at least 2 consecutive calcium values >10.5 mg/dL),[4]; in vivo,0/35
same,adverse events considered not related to study drug administration,"[4]; once daily, 24 weeks",67%
same,adverse events mild or moderate in severity,"[4]; once daily, 24 weeks",93%
same,subjects with treatment-emergent adverse events,"[4]; once daily, 24 weeks",91%

# From patent US20060009425A1, “Oral formulations of paricalcitol” (priority 2004, published 2006)
